15 molecules from US8222404B2, “[1,2,4]Thiadiazin-3-yl acetic acid compound and methods of making the acetic acid compound” (Anadys Pharmaceuticals, Inc., priority 2008, dated 2012) can be followed below.

This assay has as its system HCV Huh-luc/neo-ET replicon cells. As to the kind of experiment: Luciferase-Based HCV Replicon Assay (EC50 (1b)). The assay is classed as cell-based. As to conditions: Hepatitis C virus, 72 hours exposure, luciferase activity. Put shortly:
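Replicon cells seeded, then exposed 24 h later to a compound concentration series in triplicate for 72 h. Luciferase luminescence read; % inhibition vs no-compound control, with 100 nM BILN-2061 as background, used to derive EC50 (1b).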
(A replicon is a self-replicating genome or part of one, used to study replication in cells.)

The term EC50 denotes the concentration that produces a half-maximal response. Higher therefore signals weaker potency.

For `CC(C)CCC1(C)CN(c2ccccc2)C(=O)C(C2=NS(=O)(=O)c3c(CNS(C)(=O)=O)csc3N2)=C1O` (stereo not drawn) [Example 31, N-{3-[4-Hydroxy-5-methyl-5-(3-methyl-butyl)-2-oxo-1-phenyl-1,2,5,6-tetrahydro-pyridin-3-yl]-1,1-dioxo-1,4-dihydro-1λ^6-thieno[2,3-e][1,2,4]thiadiazin-7-ylmethyl}-methanesulfonamide], the EC50 is greater than 1000 nM.
Then `CS(=O)(=O)NCc1csc2c1S(=O)(=O)N=C(C1=C(O)[C@@H]3[C@H]4CC[C@H](C4)[C@@H]3N(Cc3cc(F)c(F)c(F)c3)C1=O)N2` [Example 54, N-{3-[(1R,2S,7R,8S)-6-Hydroxy-4-oxo-3-(3,4,5-trifluoro-benzyl)-3-aza-tricyclo[6.2.1.0^2,7]undec-5-en-5-yl]-1,1-dioxo-1,4-dihydro-1λ^6-thieno[2,3-e][1,2,4]thiadiazin-7-ylmethyl}-methanesulfonamide], with 5 to 20 nM.
The molecule `CS(=O)(=O)NCc1ccc2c(c1)S(=O)(=O)N=C(C1=C(O)[C@@H]3[C@H]4CC[C@H](C4)[C@@H]3N(Cc3ccc(F)cc3)C1=O)N2` [Example 3, N-{3-[(1R,2S,7R,8S)-3-(4-Fluoro-benzyl)-6-hydroxy-4-oxo-3-aza-tricyclo[6.2.1.0^2,7]undec-5-en-5-yl]-1,1-dioxo-1,4-dihydro-1λ^6-benzo[1,2,4]thiadiazin-7-ylmethyl}-methanesulfonamide] returned a concentration giving a half-maximal response (EC50) of 100 to 1000 nM.
In the case of `CC(C)(C)CCN1C(=O)C(C2=NS(=O)(=O)c3c(CNS(C)(=O)=O)csc3N2)=C(O)C2CCCCC21` (racemic) [Example 133, (rac-cis)-N-{3-[1-(3,3-Dimethyl-butyl)-4-hydroxy-2-oxo-1,2,4a,5,6,7,8,8a-octahydro-quinolin-3-yl]-1,1-dioxo-1,4-dihydro-1λ^6-thieno[2,3-e][1,2,4]thiadiazin-7-ylmethyl}-methanesulfonamide] it was 20 to 100 nM; in that of `CC(C)CC1CC(O)=C(C2=NS(=O)(=O)c3c(CNS(C)(=O)=O)csc3N2)C(=O)N1Cc1ccc(F)cc1` (racemic) [Example 7, rac-N-{3-[1-(4-Fluoro-benzyl)-4-hydroxy-6-isobutyl-2-oxo-1,2,5,6-tetrahydro-pyridin-3-yl]-1,1-dioxo-1,4-dihydro-1λ^6-thieno[2,3-e][1,2,4]thiadiazin-7-ylmethyl}-methanesulfonamide], 100 to 1000 nM.
In turn, `CS(=O)(=O)NCc1csc2c1S(=O)(=O)N=C(C1=C(O)[C@@H]3[C@H]4CC[C@H](C4)[C@@H]3N(Cc3ccc(F)cc3F)C1=O)N2` [Example 49, N-{3-[(1R,2S,7R,8S)-3-(2,4-Difluoro-benzyl)-6-hydroxy-4-oxo-3-aza-tricyclo[6.2.1.0^2,7]undec-5-en-5-yl]-1,1-dioxo-1,4-dihydro-1λ^6-thieno[2,3-e][1,2,4]thiadiazin-7-ylmethyl}-methanesulfonamide] yielded an EC50 of 20 to 100 nM.
On to `CC(C)CCC1(C)CN(C2CCCC2)C(=O)C(C2=NS(=O)(=O)c3c(CNS(C)(=O)=O)csc3N2)=C1O` (racemic) [Example 21, rac-N-{3-[1-Cyclopentyl-4-hydroxy-5-methyl-5-(3-methyl-butyl)-2-oxo-1,2,5,6-tetrahydro-pyridin-3-yl]-1,1-dioxo-1,4-dihydro-1λ^6-thieno[2,3-e][1,2,4]thiadiazin-7-ylmethyl}-methanesulfonamide], for which the EC50 was 100 to 1000 nM.
For the molecule `CS(=O)(=O)NCc1csc2c1S(=O)(=O)N=C(C1=C(O)CC(C3CCC3)N(Cc3ccc(F)cc3)C1=O)N2` (racemic) [Example 6, rac-N-{3-[6-Cyclobutyl-1-(4-fluoro-benzyl)-4-hydroxy-2-oxo-1,2,5,6-tetrahydro-pyridin-3-yl]-1,1-dioxo-1,4-dihydro-1λ^6-thieno[2,3-e][1,2,4]thiadiazin-7-ylmethyl}-methanesulfonamide], the EC50 was 100 to 1000 nM.
Take `CS(=O)(=O)NCc1csc2c1S(=O)(=O)N=C(C1=C(O)[C@@H]3[C@H]4CC[C@H](C4)[C@@H]3N(Cc3ccsc3)C1=O)N2` [Example 55, N-[(1R,2S,7R,8S)-3-(6-Hydroxy-4-oxo-3-thiophen-3-ylmethyl-3-aza-tricyclo[6.2.1.0^2,7]undec-5-en-5-yl)-1,1-dioxo-1,4-dihydro-1λ^6-thieno[2,3-e][1,2,4]thiadiazin-7-ylmethyl]-methanesulfonamide]: the EC50 is no more than 5 nM.
Molecule `CS(=O)(=O)NCc1csc2c1S(=O)(=O)N=C(C1=C(O)C3CCCCC3N(Cc3ccsc3)C1=O)N2` (racemic) [Example 135, (rac-cis)-N-[3-(4-Hydroxy-2-oxo-1-thiophen-3-ylmethyl-1,2,4a,5,6,7,8,8a-octahydro-quinolin-3-yl)-1,1-dioxo-1,4-dihydro-1λ^6-thieno[2,3-e][1,2,4]thiadiazin-7-ylmethyl]-methanesulfonamide] displayed an EC50 greater than 1000 nM.
As to `CS(=O)(=O)NCc1csc2c1S(=O)(=O)N=C(C1=C(O)C3C4CC(C5CC54)C3N(Cc3ccc(F)cc3)C1=O)N2` (racemic) [Example 32, (rac-di-exo, di-exo)-N-{3-[3-(4-Fluoro-benzyl)-6-hydroxy-4-oxo-3-aza-tetracyclo[6.3.1.0^2,7.0^9,11]dodec-5-en-5-yl]-1,1-dioxo-1,4-dihydro-1λ^6-thieno[2,3-e][1,2,4]thiadiazin-7-ylmethyl}-methanesulfonamide], the EC50 was no more than 5 nM.
Then `CC(C)CCN1C(=O)C(C2=NS(=O)(=O)c3c(CNS(C)(=O)=O)csc3N2)=C(O)C2C3C=CC(C3)C21` (racemic) [Example 66, (rac-di-exo)-N-{3-[6-Hydroxy-3-(3-methyl-butyl)-4-oxo-3-aza-tricyclo[6.2.1.0^2,7]undeca-5,9-dien-5-yl]-1,1-dioxo-1,4-dihydro-1λ^6-thieno[2,3-e][1,2,4]thiadiazin-7-ylmethyl}-methanesulfonamide], with 5 to 20 nM; and `Cc1cc(CN2C(=O)C(C3=NS(=O)(=O)c4c(CNS(C)(=O)=O)csc4N3)=C(O)[C@@H]3[C@@H]4CC[C@@H](C4)[C@@H]32)ccc1F` [Example 56, N-{3-[(1S,2S,7R,8R)-3-(4-Fluoro-3-methyl-benzyl)-6-hydroxy-4-oxo-3-aza-tricyclo[6.2.1.0^2,7]undec-5-en-5-yl]-1,1-dioxo-1,4-dihydro-1λ^6-thieno[2,3-e][1,2,4]thiadiazin-7-ylmethyl}-methanesulfonamide], with 20 to 100 nM.
Molecule `COc1cc(CN2C(=O)C(C3=NS(=O)(=O)c4c(CNS(C)(=O)=O)csc4N3)=C(O)[C@@H]3[C@@H]4CC[C@@H](C4)[C@@H]32)ccc1F` [Example 43, N-{3-[(1S,2S,7R,8R)-3-(4-Fluoro-3-methoxy-benzyl)-6-hydroxy-4-oxo-3-aza-tricyclo[6.2.1.0^2,7]undec-5-en-5-yl]-1,1-dioxo-1,4-dihydro-1λ^6-thieno[2,3-e][1,2,4]thiadiazin-7-ylmethyl}-methanesulfonamide] showed an EC50 of 20 to 100 nM.
The molecule `COc1ccc(CN2C(=O)C(C3=NS(=O)(=O)c4c(CNS(C)(=O)=O)csc4N3)=C(O)C3C4CCC(O4)C32)c(OC)c1` (racemic) [Example 75, (rac-di-exo)-N-{3-[3-(2,4-Dimethoxy-benzyl)-6-hydroxy-4-oxo-11-oxa-3-aza-tricyclo[6.2.1.0^2,7]undec-5-en-5-yl]-1,1-dioxo-1,4-dihydro-1λ^6-thieno[2,3-e][1,2,4]thiadiazin-7-ylmethyl}-methanesulfonamide] returned an EC50 greater than 1000 nM.
